Experimental data from ChEMBL document CHEMBL3608202, “Biarylmethoxy 2-nitroimidazooxazine antituberculosis agents: Effects of proximal ring substitution and linker reversal on metabolism and efficacy” (Bioorg Med Chem Lett, 2015).
Values after ≈ are worked out from the molar mass of the structure shown.

Tested on: Mycobacterium tuberculosis
Experiment: Antimycobacterial activity against Mycobacterium tuberculosis H37Rv after 8 days by MABA assay
Type: functional
Settings: 192 h

SMILES	MIC90 [µM]
N#Cc1cc(-c2ccc(C(F)(F)F)nc2)ccc1CO[C@@H]1COc2nc([N+](=O)[O-])cn2C1	0.28 (≈ 0.125 µg/mL)
O=[N+]([O-])c1cn2c(n1)OC[C@@H](OCc1c(F)cc(-c3ccc(OC(F)(F)F)cc3)cc1F)C2	0.06 (≈ 0.0283 µg/mL)
O=[N+]([O-])c1cn2c(n1)OCC(COc1ccc(-c3ccc(F)cc3)cn1)C2 (centres undefined)	0.03 (≈ 0.0111 µg/mL)
O=[N+]([O-])c1cn2c(n1)OC[C@@H](COc1ccc(OC(F)(F)F)cc1)C2	0.23 (≈ 0.0826 µg/mL)
O=[N+]([O-])c1cn2c(n1)OCC(COc1ccc(-c3ccc(F)cc3)nc1)C2 (centres undefined)	0.15 (≈ 0.0556 µg/mL)
O=[N+]([O-])c1cn2c(n1)OC[C@@H](OCc1ccc(OC(F)(F)F)cc1)C2 [PRETOMANID]	0.5 (≈ 0.18 µg/mL)
O=[N+]([O-])c1cn2c(n1)OC[C@@H](OCc1ccc(-c3ccc(C(F)(F)F)nc3)cc1F)C2	0.13 (≈ 0.057 µg/mL)
O=[N+]([O-])c1cn2c(n1)OCC(COc1ccc(-c3ccc(C(F)(F)F)cc3)cc1)C2 (centres undefined)	0.035 (≈ 0.0147 µg/mL)
O=[N+]([O-])c1cn2c(n1)OC[C@@H](OCc1ccc(-c3ccc(C(F)(F)F)nc3)c(F)c1)C2	0.25 (≈ 0.11 µg/mL)
O=[N+]([O-])c1cn2c(n1)OC[C@H](COc1ccc(OC(F)(F)F)cc1)C2	0.5 (≈ 0.18 µg/mL)
O=[N+]([O-])c1cn2c(n1)OC[C@@H](OCc1ccc(-c3ccc(OC(F)(F)F)cc3)cc1OC(F)(F)F)C2	0.45 (≈ 0.234 µg/mL)
COc1cc(-c2ccc(OC(F)(F)F)cc2)ccc1CO[C@@H]1COc2nc([N+](=O)[O-])cn2C1	0.64 (≈ 0.298 µg/mL)
O=[N+]([O-])c1cn2c(n1)OCC(COc1ccc(-c3ccc(OC(F)(F)F)cc3)cn1)C2 (centres undefined)	0.045 (≈ 0.0196 µg/mL)
O=[N+]([O-])c1cn2c(n1)OC[C@@H](OCc1ccc(-c3ccc(OC(F)(F)F)cc3)cc1Cl)C2	0.17 (≈ 0.0799 µg/mL)
O=[N+]([O-])c1cn2c(n1)OC[C@@H](OCc1c(F)cc(-c3ccc(C(F)(F)F)nc3)cc1F)C2	0.35 (≈ 0.16 µg/mL)
O=[N+]([O-])c1cn2c(n1)OCC(COc1ccc(-c3ccc(OC(F)(F)F)cc3)nc1)C2 (centres undefined)	0.15 (≈ 0.0655 µg/mL)
O=[N+]([O-])c1cn2c(n1)OC[C@@H](OCc1ccc(-c3ccc(OC(F)(F)F)cc3)c[n+]1[O-])C2	0.05 (≈ 0.0226 µg/mL)

Tested on: Mycobacterium tuberculosis
Experiment: Antimycobacterial activity against Mycobacterium tuberculosis H37Rv after 11 days by LORA assay
Type: functional
Settings: 264 h

SMILES	MIC90 [µM]
N#Cc1cc(-c2ccc(C(F)(F)F)nc2)ccc1CO[C@@H]1COc2nc([N+](=O)[O-])cn2C1	1.1 (≈ 0.49 µg/mL)
O=[N+]([O-])c1cn2c(n1)OC[C@@H](OCc1c(F)cc(-c3ccc(OC(F)(F)F)cc3)cc1F)C2	1.5 (≈ 0.707 µg/mL)
O=[N+]([O-])c1cn2c(n1)OCC(COc1ccc(-c3ccc(F)cc3)cn1)C2 (centres undefined)	25 (≈ 9.26 µg/mL)
O=[N+]([O-])c1cn2c(n1)OC[C@@H](COc1ccc(OC(F)(F)F)cc1)C2	1.9 (≈ 0.683 µg/mL)
O=[N+]([O-])c1cn2c(n1)OCC(COc1ccc(-c3ccc(F)cc3)nc1)C2 (centres undefined)	2 (≈ 0.741 µg/mL)
O=[N+]([O-])c1cn2c(n1)OC[C@@H](OCc1ccc(OC(F)(F)F)cc1)C2 [PRETOMANID]	2.6 (≈ 0.934 µg/mL)
O=[N+]([O-])c1cn2c(n1)OC[C@@H](OCc1ccc(-c3ccc(C(F)(F)F)nc3)cc1F)C2	0.68 (≈ 0.298 µg/mL)
O=[N+]([O-])c1cn2c(n1)OCC(COc1ccc(-c3ccc(C(F)(F)F)cc3)cc1)C2 (centres undefined)	100 (≈ 41.9 µg/mL)
O=[N+]([O-])c1cn2c(n1)OC[C@@H](OCc1ccc(-c3ccc(C(F)(F)F)nc3)c(F)c1)C2	0.9 (≈ 0.395 µg/mL)
O=[N+]([O-])c1cn2c(n1)OC[C@H](COc1ccc(OC(F)(F)F)cc1)C2	9 (≈ 3.23 µg/mL)
O=[N+]([O-])c1cn2c(n1)OC[C@@H](OCc1ccc(-c3ccc(OC(F)(F)F)cc3)cc1OC(F)(F)F)C2	7.5 (≈ 3.9 µg/mL)
COc1cc(-c2ccc(OC(F)(F)F)cc2)ccc1CO[C@@H]1COc2nc([N+](=O)[O-])cn2C1	5.5 (≈ 2.56 µg/mL)
O=[N+]([O-])c1cn2c(n1)OCC(COc1ccc(-c3ccc(OC(F)(F)F)cc3)cn1)C2 (centres undefined)	100 (≈ 43.6 µg/mL)
O=[N+]([O-])c1cn2c(n1)OC[C@@H](OCc1ccc(-c3ccc(OC(F)(F)F)cc3)cc1Cl)C2	1.6 (≈ 0.752 µg/mL)
O=[N+]([O-])c1cn2c(n1)OC[C@@H](OCc1c(F)cc(-c3ccc(C(F)(F)F)nc3)cc1F)C2	2.9 (≈ 1.32 µg/mL)
O=[N+]([O-])c1cn2c(n1)OCC(COc1ccc(-c3ccc(OC(F)(F)F)cc3)nc1)C2 (centres undefined)	6.9 (≈ 3.01 µg/mL)
O=[N+]([O-])c1cn2c(n1)OC[C@@H](OCc1ccc(-c3ccc(OC(F)(F)F)cc3)c[n+]1[O-])C2	32 (≈ 14.5 µg/mL)

Tested on: not listed separately
Experiment: Metabolic stability in human liver microsomes assessed as compound remaining after 1 hr
Type: ADME
Settings: read-out: Stability

SMILES	remaining at 1 h [%]
O=[N+]([O-])c1cn2c(n1)OC[C@@H](OCc1c(F)cc(-c3ccc(OC(F)(F)F)cc3)cc1F)C2	95
O=[N+]([O-])c1cn2c(n1)OC[C@@H](COc1ccc(OC(F)(F)F)cc1)C2	91
O=[N+]([O-])c1cn2c(n1)OC[C@@H](OCc1ccc(OC(F)(F)F)cc1)C2 [PRETOMANID]	82
O=[N+]([O-])c1cn2c(n1)OC[C@@H](OCc1ccc(-c3ccc(C(F)(F)F)nc3)cc1F)C2	96
O=[N+]([O-])c1cn2c(n1)OC[C@H](COc1ccc(OC(F)(F)F)cc1)C2	90
O=[N+]([O-])c1cn2c(n1)OC[C@@H](OCc1ccc(-c3ccc(OC(F)(F)F)cc3)cc1OC(F)(F)F)C2	97
COc1cc(-c2ccc(OC(F)(F)F)cc2)ccc1CO[C@@H]1COc2nc([N+](=O)[O-])cn2C1	88
O=[N+]([O-])c1cn2c(n1)OC[C@@H](OCc1ccc(-c3ccc(OC(F)(F)F)cc3)cc1Cl)C2	99

Tested on: not listed separately
Experiment: Metabolic stability in CD1 mouse liver microsomes assessed as compound remaining after 1 hr
Type: ADME
Settings: read-out: Stability

SMILES	remaining at 1 h [%]
O=[N+]([O-])c1cn2c(n1)OC[C@@H](OCc1c(F)cc(-c3ccc(OC(F)(F)F)cc3)cc1F)C2	94
O=[N+]([O-])c1cn2c(n1)OC[C@@H](COc1ccc(OC(F)(F)F)cc1)C2	80
O=[N+]([O-])c1cn2c(n1)OC[C@@H](OCc1ccc(-c3ccc(C(F)(F)F)nc3)cc1F)C2	78
O=[N+]([O-])c1cn2c(n1)OC[C@H](COc1ccc(OC(F)(F)F)cc1)C2	72
O=[N+]([O-])c1cn2c(n1)OC[C@@H](OCc1ccc(-c3ccc(OC(F)(F)F)cc3)cc1OC(F)(F)F)C2	100
COc1cc(-c2ccc(OC(F)(F)F)cc2)ccc1CO[C@@H]1COc2nc([N+](=O)[O-])cn2C1	87
O=[N+]([O-])c1cn2c(n1)OC[C@@H](OCc1ccc(-c3ccc(OC(F)(F)F)cc3)cc1Cl)C2	100

Tested on: Vero
Experiment: Cytotoxicity against African green monkey Vero cells after 72 hrs
Type: cell-based
Settings: Chlorocebus sabaeus

SMILES	IC50 [µM]
N#Cc1cc(-c2ccc(C(F)(F)F)nc2)ccc1CO[C@@H]1COc2nc([N+](=O)[O-])cn2C1	> 128
O=[N+]([O-])c1cn2c(n1)OC[C@@H](OCc1c(F)cc(-c3ccc(OC(F)(F)F)cc3)cc1F)C2	> 128
O=[N+]([O-])c1cn2c(n1)OCC(COc1ccc(-c3ccc(F)cc3)cn1)C2 (centres undefined)	> 128
O=[N+]([O-])c1cn2c(n1)OC[C@@H](COc1ccc(OC(F)(F)F)cc1)C2	> 128
O=[N+]([O-])c1cn2c(n1)OCC(COc1ccc(-c3ccc(F)cc3)nc1)C2 (centres undefined)	> 128
O=[N+]([O-])c1cn2c(n1)OC[C@@H](OCc1ccc(-c3ccc(C(F)(F)F)nc3)cc1F)C2	> 128
O=[N+]([O-])c1cn2c(n1)OCC(COc1ccc(-c3ccc(C(F)(F)F)cc3)cc1)C2 (centres undefined)	> 128
O=[N+]([O-])c1cn2c(n1)OC[C@@H](OCc1ccc(-c3ccc(C(F)(F)F)nc3)c(F)c1)C2	> 128
O=[N+]([O-])c1cn2c(n1)OC[C@H](COc1ccc(OC(F)(F)F)cc1)C2	> 128
O=[N+]([O-])c1cn2c(n1)OC[C@@H](OCc1ccc(-c3ccc(OC(F)(F)F)cc3)cc1OC(F)(F)F)C2	> 128
COc1cc(-c2ccc(OC(F)(F)F)cc2)ccc1CO[C@@H]1COc2nc([N+](=O)[O-])cn2C1	> 128
O=[N+]([O-])c1cn2c(n1)OCC(COc1ccc(-c3ccc(OC(F)(F)F)cc3)cn1)C2 (centres undefined)	> 128
O=[N+]([O-])c1cn2c(n1)OC[C@@H](OCc1ccc(-c3ccc(OC(F)(F)F)cc3)cc1Cl)C2	> 128
O=[N+]([O-])c1cn2c(n1)OC[C@@H](OCc1c(F)cc(-c3ccc(C(F)(F)F)nc3)cc1F)C2	43
O=[N+]([O-])c1cn2c(n1)OCC(COc1ccc(-c3ccc(OC(F)(F)F)cc3)nc1)C2 (centres undefined)	> 128
O=[N+]([O-])c1cn2c(n1)OC[C@@H](OCc1ccc(-c3ccc(OC(F)(F)F)cc3)c[n+]1[O-])C2	> 128

Tested on: Mycobacterium tuberculosis
Experiment: Antimycobacterial activity against Mycobacterium tuberculosis infected in mouse assessed as fold reduction of colony forming units in lungs at 100 mg/kg, po administered for 5 days a week for 3 weeks beginning on day 11 post-infection relative to pretomanid
Type: functional
Settings: not given

SMILES	Ratio
O=[N+]([O-])c1cn2c(n1)OC[C@@H](OCc1c(F)cc(-c3ccc(OC(F)(F)F)cc3)cc1F)C2	0.98
O=[N+]([O-])c1cn2c(n1)OC[C@@H](COc1ccc(OC(F)(F)F)cc1)C2	0.7
O=[N+]([O-])c1cn2c(n1)OC[C@@H](OCc1ccc(-c3ccc(C(F)(F)F)nc3)cc1F)C2	13
O=[N+]([O-])c1cn2c(n1)OC[C@H](COc1ccc(OC(F)(F)F)cc1)C2	0.41
O=[N+]([O-])c1cn2c(n1)OC[C@@H](OCc1ccc(-c3ccc(OC(F)(F)F)cc3)cc1Cl)C2	2.1

Tested on: Mycobacterium tuberculosis
Experiment: Ratio of pretomanid MIC90 to compound MIC90 for Mycobacterium tuberculosis H37Rv after 8 days by MABA assay
Type: functional
Settings: not given

SMILES	Ratio
O=[N+]([O-])c1cn2c(n1)OC[C@@H](COc1ccc(OC(F)(F)F)cc1)C2	2
O=[N+]([O-])c1cn2c(n1)OC[C@H](COc1ccc(OC(F)(F)F)cc1)C2	2

Tested on: Mycobacterium tuberculosis
Experiment: Ratio of pretomanid MIC90 to compound MIC90 for Mycobacterium tuberculosis H37Rv after 11 days by LORA assay
Type: functional
Settings: not given

SMILES	Ratio
O=[N+]([O-])c1cn2c(n1)OC[C@@H](COc1ccc(OC(F)(F)F)cc1)C2	5
O=[N+]([O-])c1cn2c(n1)OC[C@H](COc1ccc(OC(F)(F)F)cc1)C2	5
